Patent publication US20090131354A1, “miR-126 REGULATED GENES AND PATHWAYS AS TARGETS FOR THERAPEUTIC INTERVENTION” (priority 2007, published 2009)

Assays:
SCLC and NSCLC cells = settings: various lung cancer cells; cited from earlier work
[1] = tested on: lung cancer cells A549, H1299, H522, H838, Calu-3, HCC827, HCC2935, H520, H1650, H460, H226; experiment: Alamar Blue proliferation assay, all lung cancer cell lines tested; type: cell-based, human; settings: 30 nM
Excerpt: The inventors assessed the therapeutic effect of hsa-miR-126 for lung cancer by using 11 individual lung cancer cell lines. To measure cellular proliferation of lung cancer cells, the following non-small cell lung cancer (NSCLC) cells were used: cells derived from lung adenocarcinoma (A549, H1299, H522, H838, Calu-3, HCC827, HCC2935), cells derived from lung squamous cell carcinoma (H520, H226), cells derived from lung bronchioalveolar carcinoma (H1650), and cells derived from lung large cell carcinoma (H460). Synthetic hsa-miR-126 (Pre-miR™-hsa-miR-126, Ambion cat. no. AM17100) or negative control (NC) miRNA (Pre-miR™ microRNA Precursor Molecule-Negative Control #2; Ambion cat. no. AM17111) was delivered via lipid-based transfection into A549, H1299, H522, H838, Calu-3, HCC827, HCC2935, H520, H1650, and H460 cells, and via electroporation into H226 cells.
Lipid-based reverse transfections were carried out in triplicate according to a published protocol (Ovcharenko et al., 2005) and the following parameters: Cells (5,000-12,000 per 96 well), 0.1-0.2 μl Lipofectamine™ 2000 (cat. no. 11668-019, Invitrogen Corp., Carlsbad, Calif., USA) in 20 μl OptiMEM (Invitrogen), 30 nM final concentration of miRNA in 100 μl. […]

[2] = tested on: RWPE2 prostate cancer cells; experiment: Alamar Blue proliferation assay, RWPE2; type: cell-based, human; settings: 30 nM, normalized to negative control miRNA (100% proliferation)
Excerpt: The inventors assessed the therapeutic effect of hsa-miR-126 for prostate cancer by using 4 individual human prostate cancer cell lines. To measure cellular proliferation of prostate cancer cells, the following prostate cancer cell lines were used: PPC-1, derived from a bone metastasis; Du145, derived from a brain metastasis; RWPE2, derived from prostate cells immortalized by human papillomavirus 18 and transformed by the K-RAS oncogene; and LNCaP, derived from a lymph node metastasis (Stone et al., 1978; Horoszewicz et al., 1980; Brothman et al., 1991; Pretlow et al., 1993; Bello et al., 1997). PPC-1 and Du145 cells lack expression of the prostate-specific antigen (PSA) and are independent of androgen receptor (AR) signaling. In contrast, RWPE2 and LNCaP cells test positive for PSA and AR. Cells were transfected with synthetic hsa-miR-126 (Pre-miR™-hsa-miR-126, Ambion cat. no. AM 17100) or negative control miRNA (NC; Pre-miR™ microRNA Precursor Molecule-Negative Control #2; Ambion cat. no. AM17111) in a 96-well format using a lipid-based transfection reagent. […] Proliferation was assessed 4-7 days post-transfection using Alamar Blue™ (Invitrogen) following the manufacturer's instructions. […] Fluorescent light units (FLU) were measured after 3 hours, normalized to the control, and plotted as percent change in proliferation. […]

[3] = tested on: MCF12A, BT549, TE353SK, 22Rv1, A549, CRL-5826, HTB-57 cells; settings: cited from earlier work

Compound | IC50 (SCLC and NSCLC cells) [µM] | average inhibition of cellular proliferation ([1]; average of 11 lung cancer cell lines) [%] | growth-inhibitory activity compared with etoposide ([1]; lung cancer cell lines) | % proliferation [2] [%] | effect on proliferation [3]
COc1cc([C@@H]2c3cc4c(cc3[C@@H](O[C@@H]3O[C@@H]5CO[C@@H](C)O[C@H]5[C@H](O)[C@H]3O)[C@H]3COC(=O)[C@H]23)OCO4)cc(OC)c1O [etoposide] | 1 to 25 | – | – | – | –
hsa-miR-126 (UCGUACCGUGAGUAAUAAUGC; synthetic pre-miR form, further chemistry not given here) [Synthetic hsa-miR-126 (Pre-miR™-hsa-miR-126, Ambion cat. no. AM17100)] | – | 25.33 | comparable to that of etoposide at concentrations >10 μM | 91.82 | decreasing proliferation
